The experiment relates to Escherichia coli ATCC 25922. Nature of the experiment: Minimum inhibitory concentration (MIC), CLSI broth micro-dilution, E. coli. The class given is cell-based. Particulars: Escherichia coli. A digest of the protocol:
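Colonies grown 20 h at 35° C on Trypticase Soy agar (MRSA) or Luria agar (E. coli) were suspended in cation-adjusted Mueller Hinton broth with 0.002% Tween-80. Suspensions were added at OD600 0.0005 to 10-point twofold compound dilutions, then incubated 22 h at 35° C.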

Setting [1] is: ATCC25922, 22 h, Table 7, cation adjusted Mueller Hinton Broth + 0.002% Tween-80, 35° C.
Where [2] appears, read: ATCC25922, Table 7, cation adjusted Mueller Hinton Broth + 0.002% Tween-80, 35° C., 22 hours.

For orientation: MIC means the lowest concentration found to suppress growth. As for `Cc1nc(-c2ccc(OC(C)C)cc2)nc(C)c1C(=O)N[C@@H](CNS(N)(=O)=O)C(=O)N(C)[C@@H]1C(=O)N[C@@H](C)C(=O)N[C@H](C(=O)NCC#N)Cc2ccc(OC[C@H](O)CN)c(c2)-c2cc1ccc2OC[C@H](O)CN` (racemic) [Compound 579, rac-(8S,11S,14S)-N-(cyanomethyl)-11-methyl-14-[methyl-[rac-(2S)-2-[[2-(4-isopropoxyphenyl)-4,6-dimethyl-pyrimidine-5-carbonyl]amino]-3-(sulfamoylamino)propanoyl]amino]-10,13-dioxo-3,18-bis[rac-(2R)-3-amino-2-hydroxy-propoxy]-9,12-diazatricyclo[13.3.1.12,6]icosa-1(18),2(20),3,5,15(19),16-hexaene-8-carboxamide], the minimum inhibitory concentration (MIC) under setting [1] was determined as 0.75 µM.

`Cc1nc(-c2ccc(C(C)(C)C)cc2)nc(C)c1C(=O)N[C@@H](CCNS(N)(=O)=O)C(=O)N(C)[C@@H]1C(=O)N[C@@H](C)C(=O)N[C@H](C(=O)NCC#N)Cc2ccc(OC[C@H](O)CN)c(c2)-c2cc1ccc2OC[C@H](O)CN` (racemic) [Compound 580, rac-(8S,11S,14S)-N-(cyanomethyl)-11-methyl-14-[methyl-[rac-(2S)-2-[[2-(4-tert-butylphenyl)-4,6-dimethyl-pyrimidine-5-carbonyl]amino]-4-(sulfamoylamino)butanoyl]amino]-10,13-dioxo-3,18-bis[rac-(2R)-3-amino-2-hydroxy-propoxy]-9,12-diazatricyclo[13.3.1.12,6]icosa-1(18),2(20),3,5,15(19),16-hexaene-8-carboxamide]: the MIC under setting [1] came to 0.58 µM.

Take `Cc1nc(-c2ccc(C(C)(C)C)cc2)nc(C)c1C(=O)N[C@@H](CNS(N)(=O)=O)C(=O)N(C)[C@@H]1C(=O)N[C@@H](C)C(=O)N[C@H](C(=O)NCC#N)Cc2ccc(OC[C@@H](O)CN)c(c2)-c2cc1ccc2OC[C@@H](O)CN` (racemic) [Compound 581, rac-(8S,11S,14S)-N-(cyanomethyl)-11-methyl-14-[methyl-[rac-(2S)-2-[[2-(4-tert-butylphenyl)-4,6-dimethyl-pyrimidine-5-carbonyl]amino]-3-(sulfamoylamino)propanoyl]amino]-10,13-dioxo-3,18-bis[rac-(2S)-3-amino-2-hydroxy-propoxy]-9,12-diazatricyclo[13.3.1.12,6]icosa-1(18),2(20),3,5,15(19),16-hexaene-8-carboxamide]: the MIC under setting [1] turned out to be 0.25 µM.

For `Cc1nc(-c2ccc(C(C)(C)C)cc2)nc(C)c1C(=O)N[C@@H](CNS(N)(=O)=O)C(=O)N(C)[C@@H]1C(=O)N[C@@H](C)C(=O)N[C@H](C(=O)NCC#N)Cc2ccc(OC[C@H](O)CN)c(c2)-c2cc1cc(OC[C@H](O)CN)c2O` (racemic) [Compound 582, rac-(8S,11S,14S)-N-(cyanomethyl)-18-hydroxy-11-methyl-14-[methyl-[rac-(2S)-2-[[2-(4-tert-butylphenyl)-4,6-dimethyl-pyrimidine-5-carbonyl]amino]-3-(sulfamoylamino)propanoyl]amino]-10,13-dioxo-3,17-bis[rac-(2R)-3-amino-2-hydroxy-propoxy]-9,12-diazatricyclo[13.3.1.12,6]icosa-1(18),2(20),3,5,15(19),16-hexaene-8-carboxamide], the MIC under setting [2] turned out to be 0.75 µM.

Take `Cc1nc(-c2ccc(C(C)(C)C)cc2)nc(C)c1C(=O)N[C@@H](CNS(N)(=O)=O)C(=O)N(C)[C@@H]1C(=O)N[C@@H](C)C(=O)N[C@H](C(=O)NCC#N)Cc2ccc(OCCN)c(c2)-c2cc1cc(OCCN)c2O` (racemic) [Compound 584, rac-(8S,11S,14S)-3,17-bis(2-aminoethoxy)-N-(cyanomethyl)-18-hydroxy-11-methyl-14-[methyl-[rac-(2S)-2-[[2-(4-tert-butylphenyl)-4,6-dimethyl-pyrimidine-5-carbonyl]amino]-3-(sulfamoylamino)propanoyl]amino]-10,13-dioxo-9,12-diazatricyclo[13.3.1.12,6]icosa-1(18),2(20),3,5,15(19),16-hexaene-8-carboxamide]: the MIC under setting [1] came out at 0.5 µM.

For the molecule `COc1c(OCCN)cc2cc1-c1cc(ccc1OCCN)C[C@@H](C(=O)NCC#N)NC(=O)[C@H](C)NC(=O)[C@H]2N(C)C(=O)[C@H](CNS(N)(=O)=O)NC(=O)c1c(C)nc(-c2ccc(C(C)(C)C)cc2)nc1C` (racemic) [Compound 585, rac-(8S,11S,14S)-3,17-bis(2-aminoethoxy)-N-(cyanomethyl)-18-methoxy-11-methyl-14-[methyl-[rac-(2S)-2-[[2-(4-tert-butylphenyl)-4,6-dimethyl-pyrimidine-5-carbonyl]amino]-3-(sulfamoylamino)propanoyl]amino]-10,13-dioxo-9,12-diazatricyclo[13.3.1.12,6]icosa-1(18),2(20),3,5,15(19),16-hexaene-8-carboxamide], the MIC under setting [2] worked out at 0.38 µM.

In the case of `COc1c(OC[C@H](O)CN)cc2cc1-c1cc(ccc1OC[C@H](O)CN)C[C@@H](C(=O)NCC#N)NC(=O)[C@H](C)NC(=O)[C@H]2N(C)C(=O)[C@H](CCN)NC(=O)c1c(C)nc(-c2ccc(C(C)(C)C)cc2)nc1C` (racemic) [Compound 586, rac-(8S,11S,14S)-N-(cyanomethyl)-18-methoxy-11-methyl-14-[methyl-[rac-(2S)-4-amino-2-[[2-(4-tert-butylphenyl)-4,6-dimethyl-pyrimidine-5-carbonyl]amino]butanoyl]amino]-10,13-dioxo-3,17-bis[rac-(2R)-3-amino-2-hydroxy-propoxy]-9,12-diazatricyclo[13.3.1.12,6]icosa-1(18),2(20),3,5,15(19),16-hexaene-8-carboxamide], the MIC under setting [1] is 0.19 µM.

On to `Cc1nc(-c2ccc(C(C)(C)C)cc2)nc(C)c1C(=O)N[C@@H](CCN)C(=O)N(C)[C@@H]1C(=O)N[C@@H](C)C(=O)N[C@H](C(=O)NCC#N)Cc2ccc(OC[C@H](O)CN)c(c2)-c2cc1cc(OCCN)c2O` (racemic) [Compound 587, rac-(8S,11S,14S)-17-(2-aminoethoxy)-N-(cyanomethyl)-18-hydroxy-11-methyl-14-[methyl-[rac-(2S)-4-amino-2-[[2-(4-tert-butylphenyl)-4,6-dimethyl-pyrimidine-5-carbonyl]amino]butanoyl]amino]-10,13-dioxo-3-[rac-(2R)-3-amino-2-hydroxy-propoxy]-9,12-diazatricyclo[13.3.1.12,6]icosa-1(18),2(20),3,5,15(19),16-hexaene-8-carboxamide], for which the MIC under setting [1] stood at 0.094 µM.

Take `Cc1nc(-c2ccc(C(C)(C)C)cc2)nc(C)c1C(=O)N[C@@H](CCN)C(=O)N(C)[C@@H]1C(=O)N[C@@H](C)C(=O)N[C@H](C(=O)NCC#N)Cc2ccc(OCCN)c(c2)-c2cc1cc(OC[C@H](O)CN)c2O` (racemic) [Compound 588, rac-(8S,11S,14S)-3-(2-aminoethoxy)-N-(cyanomethyl)-18-hydroxy-11-methyl-14-[methyl-[rac-(2S)-4-amino-2-[[2-(4-tert-butylphenyl)-4,6-dimethyl-pyrimidine-5-carbonyl]amino]butanoyl]amino]-10,13-dioxo-17-[rac-(2R)-3-amino-2-hydroxy-propoxy]-9,12-diazatricyclo[13.3.1.12,6]icosa-1(18),2(20),3,5,15(19),16-hexaene-8-carboxamide]: the MIC under setting [1] is 0.094 µM.

On to `Cc1nc(-c2ccc(C(C)(C)C)cc2)nc(C)c1C(=O)N[C@@H](CCN)C(=O)N(C)[C@@H]1C(=O)N[C@@H](C)C(=O)N[C@H](C(=O)NCC#N)Cc2ccc(OCCN)c(c2)-c2cc1cc(NCCN)c2O` (racemic) [Compound 589, rac-(8S,11S,14S)-3-(2-aminoethoxy)-17-(2-aminoethylamino)-N-(cyanomethyl)-18-hydroxy-11-methyl-14-[methyl-[rac-(2S)-4-amino-2-[[2-(4-tert-butylphenyl)-4,6-dimethyl-pyrimidine-5-carbonyl]amino]butanoyl]amino]-10,13-dioxo-9,12-diazatricyclo[13.3.1.12,6]icosa-1(18),2(20),3,5,15(19),16-hexaene-8-carboxamide], for which the MIC under setting [1] was determined as 1 µM.

With `Cc1nc(-c2ccc(C(C)(C)C)cc2)nc(C)c1C(=O)N[C@@H](CNS(N)(=O)=O)C(=O)N(C)[C@@H]1C(=O)N[C@@H](C)C(=O)N[C@H](C(=O)NCC#N)Cc2ccc(OCCN)c(c2)-c2cc1cc(OCCNC(=N)N)c2O` (racemic) [Compound 590, rac-(8S,11S,14S)-3-(2-aminoethoxy)-N-(cyanomethyl)-17-(2-guanidinoethoxy)-18-hydroxy-11-methyl-14-[methyl-[rac-(2S)-2-[[2-(4-tert-butylphenyl)-4,6-dimethyl-pyrimidine-5-carbonyl]amino]-3-(sulfamoylamino)propanoyl]amino]-10,13-dioxo-9,12-diazatricyclo[13.3.1.12,6]icosa-1(18),2(20),3,5,15(19),16-hexaene-8-carboxamide], the minimum inhibitory concentration (MIC) under setting [2] came to 0.38 µM.

Regarding `COc1c(OC[C@H](O)CN)cc2cc1-c1cc(cc(OC[C@H](O)CN)c1OC)[C@H](N(C)C(=O)[C@H](CCN)NC(=O)c1c(C)nc(-c3ccc(C(C)(C)C)cc3)nc1C)C(=O)N[C@@H](C)C(=O)N[C@H](C(=O)NCC#N)C2` (racemic) [Compound 591, rac-(8S,11S,14S)-N-(cyanomethyl)-3,18-dimethoxy-11-methyl-14-[methyl-[rac-(2S)-4-amino-2-[[2-(4-tert-butylphenyl)-4,6-dimethyl-pyrimidine-5-carbonyl]amino]butanoyl]amino]-10,13-dioxo-4,17-bis[rac-(2R)-3-amino-2-hydroxy-propoxy]-9,12-diazatricyclo[13.3.1.12,6]icosa-1(18),2(20),3,5,15(19),16-hexaene-8-carboxamide], the MIC under setting [1] turned out to be 0.25 µM.

The record behind these values is patent US20260274892A1, “MACROCYCLIC BROAD SPECTRUM ANTIBIOTICS” (RQx Pharmaceuticals, Inc., priority 2017, published 2026).
